Test results as given in paper PMC5706432, “Host-guest interaction of β-cyclodextrin with isomeric ursolic acid and oleanolic acid: physicochemical characterization and molecular modeling study” (Journal of Biomedical Research, 2017).

Assay: UV-vis absorption, stability constant by modified Benesi-Hildebrand equation
Format: physicochemical
Conditions: UV absorption spectra, ethanol/water (50%, v/v), 1:1 host-guest complex assumed
Procedure: Furthermore, absorption spectra obtained with various concentrations of β-CD (0 to 1.44 mmol/L) and added to a constant drug (0.03753 mmol/L UA or 0.038715 mmol/L OA) concentration in ethanol/water (50%, v/v) were scanned by the UV spectrophotometry (Shimadzu UV-2401 visible spectrophotometer, Shimadzu Corp., Tokyo, Japan). The stability constant was calculated according to the modified Benesi-Hildebrand equation Eq. (1) assuming the formation of a 1:1 host-guest complex^[[14]^].
(1) 1/ΔA=1/KΔε[D]01/[CD]0+1/Δε[D]0 Where ΔA was the change in absorbance of drugs at λmax in the presence and absence of β-CD. [D]0 and [CD]0 were the total concentration of added drug and β-CD, respectively. Δε represented the difference in molar absorptivities between the free drug and the inclusion complex, and K was the stability constant.

| Structure (SMILES) | stability constant K |
| --- | --- |
| C[C@H]1[C@H](C)CC[C@]2(C(=O)O)CC[C@]3(C)C(=CC[C@@H]4[C@@]5(C)CC[C@H](O)C(C)(C)[C@@H]5CC[C@]43C)[C@H]12 [UA, ursolic acid] | 5642 L/mol |
| CC1(C)CC[C@]2(C(=O)O)CC[C@]3(C)C(=CC[C@@H]4[C@@]5(C)CC[C@H](O)C(C)(C)[C@@H]5CC[C@]43C)[C@@H]2C1 [OA, oleanolic acid] | 5157 L/mol |
